{"source": "patent US12097200B2", "about": "“Combination of BI853520 with chemotherapeutic drugs” (INXMED (NANJING) CO., LTD., priority 2020, dated 2024)", "key": {"NCI-H520 cells": {"system": "NCI-H520 cells", "conditions": "NCI-H520 xenograft, day 22, combination of both", "method": "Mice were approximately 6 weeks old. There were 5 mice in each group.\nThe cell concentration of the culture was maintained between 8×10^6 to 12×10^7 cells/tissue culture flask.\nCisplatin was dissolved in 0.9% saline.\nStatistical evaluation was performed using the Student's t-test function in Microsoft Excel, utilizing a two-tailed distribution and a two-sample equal variance type."}, "KYSE-70 cells": {"system": "KYSE-70 cells", "test": "Antitumor activity in mouse xenograft model of human esophageal cancer (KYSE-70)", "type": "in vivo", "conditions": "KYSE-70 xenograft, combination of both"}, "HS 746T cells": {"system": "HS 746T cells", "test": "Antitumor activity in mouse xenograft model of human gastric cancer (HS 746T)", "type": "in vivo", "conditions": "HS 746T xenograft, combination of both", "from_the_text": "(§1) For tumor volume, absolute values were used.\n(§2) Appropriate statistical methods were used for evaluation.\nHS 746T: Approximately 6 week old mice."}, "[1]": {"system": "GXA 3039 gastric cancer PDX model", "method": "Mice were housed in individual ventilated cages ([sequence] Sealsafe™-IVC-System, [sequence], Hohenpeissenberg, Germany), and type II or III cages were selected according to the number of experimental animals. The cages were under the conditions: 14L:10D light-dark cycle, air exchange (AC) rate of 60-65 AC/hr in the cage, 25±1° C. and 40-70% humidity. […] Water and diet were changed twice a week, and all materials were autoclaved before use.\nTumor fragments were implanted subcutaneously into the flank of female pre-study mice. […] Animals that were not randomized were euthanized. The date of randomization was designated as day 0 of the test, and dosing began on day 1. […] If less than 70% of the original number of mice survived (i.e. less than 6 out of 8), the entire group was terminated. […] Tolerability was assessed using the group with the largest median body weight loss (BWL) among groups.\nInhibition of tumor growth was determined by calculating TGI.\nAdditional endpoints used to assess efficacy included: time to tumor volume doubling/quadrupling and tumor growth delay/time to tumor progression/tumor repopulation.\nTime to tumor volume doubling/quadrupling: The time to tumor volume doubling/quadrupling (Td/Tq) for the test and control groups was defined as the time interval (in days) required for each group to reach 200%/400% of the median RTV. The relative volume of a single tumor on day X (RTVx [%]) was obtained by dividing the absolute volume of the tumor on day X (Tx) by the absolute volume of the tumor on day 0 (T0) and then multiplying it by 100, as follows:\nTumor growth delay/time to tumor progression/tumor repopulation: To assess the difference in time to tumor progression/tumor repopulation after tumor regression during the no-dose observation period (tumor growth delay, TGD), Kaplan-Meier survival analysis was used. A relative tumor volume of 400% was defined as the endpoint.\nThe control group for oral administration was 0.5% Natrosol. The control group for intravenous administration was 0.9% saline. Each dose was 10 ml/kg.\nData were used for statistical analysis at the end of the study. The one-tailed nonparametric Mann-Whitney-Wilcoxon U test was used with the significance level a set at 0.05. The p-values obtained from the U-test were adjusted using the Bonferroni-Holm correction.\nTo assess the statistical significance of differences in time to tumor progression/tumor growth delay (TGD) using 400% of RTV as the trial endpoint, the Kaplan-Meier survival mode statistic was used in conjunction with the log-rank Mantel-Cox test for pairwise comparisons.\nAdditionally, to assess tolerance to treatment, a two-tailed nonparametric Mann-Whitney-Wilcoxon U test was performed using body weights determined at the end of the dosing period (i.e., on the day TGI values were calculated).\nBy convention, p-values≤0.05 represented significant tumor inhibition or weight loss."}, "KYSE-270 cells": {"system": "KYSE-270 cells", "test": "Antitumor activity in mouse xenograft model of human esophageal cancer (KYSE-270)", "type": "in vivo", "conditions": "KYSE-270 xenograft", "from_the_text": "as §1, §2\nMice were approximately 8-10 weeks old.\nKYSE-270 was a cell line for esophageal cancer (Public Health England, Cat. No. 94072021)."}, "[2]": {"conditions": "BI 853520 50 mg/kg qd, cisplatin 5 mg/kg IP q7d"}, "[3]": {"conditions": "BI 853520 50 mg/kg qd, docetaxel 10 mg/kg q7d"}, "[4]": {"conditions": "BI 853520 50 mg/kg qd, paclitaxel 10 mg/kg q7d, combination of both"}}, "note": "Values joined by “and” are separate entries in the source; they are usually repeats but may differ in a detail not shown here. Equal entries are not always repeated. “Also recorded” adds a separate entry of the source.", "data": [{"molecule": "N.N.[Cl][Pt][Cl]", "note": "[Cisplatin, reference compound]", "values": [{"measurement": "Median tumor volume", "setting": "NCI-H520 cells; BI 853520 50 mg/kg qd by gavage, cisplatin 5 mg/kg IP once a week", "result": 228, "unit": "mm^3"}, {"measurement": "Median TGI", "setting": "NCI-H520 cells; [2]", "result": 74, "unit": "%"}, {"measurement": "Tumor regression (animals with regression/animals in group)", "setting": "NCI-H520 cells; [2]", "result": "0/7"}]}, {"molecule": "CC(=O)O[C@@]12CO[C@@H]1C[C@H](O)[C@@]1(C)C(=O)[C@H](O)C3=C(C)[C@@H](OC(=O)[C@H](O)[C@@H](NC(=O)OC(C)(C)C)c4ccccc4)C[C@@](O)([C@@H](OC(=O)c4ccccc4)[C@H]21)C3(C)C", "note": "[Docetaxel, reference compound]", "values": [{"measurement": "Median tumor volume", "setting": "KYSE-70 cells; day 42, BI 853520 50 mg/kg qd by gavage, docetaxel 10 mg/kg q7d i.v.", "result": 73, "unit": "mm^3"}, {"measurement": "Antitumor effect (in words)", "setting": "KYSE-70 cells; [3]", "result": "had inhibitory effect"}, {"measurement": "Change in median body weight", "setting": "KYSE-70 cells; [3]", "result": 5.6, "unit": "%"}, {"measurement": "TGI", "setting": "KYSE-70 cells; [3]", "result": 100, "unit": "%"}, {"measurement": "Median tumor volume", "setting": "HS 746T cells; day 24 (withdrawal on day 28), BI 853520 50 mg/kg qd by gavage, docetaxel 10 mg/kg q7d i.v.", "result": 0, "unit": "mm^3"}, {"measurement": "Antitumor effect (in words)", "setting": "HS 746T cells; [3]", "result": "had inhibitory effect"}, {"measurement": "Change in median body weight", "setting": "HS 746T cells; [3]", "result": 6.7, "unit": "%"}, {"measurement": "TGI", "setting": "HS 746T cells; [3]", "result": 108, "unit": "%"}, {"measurement": "Td (time to tumor volume doubling)", "setting": "[1]; GXA 3039 PDX, time to 200% of median RTV, doses as Table 8", "result": 8.5, "unit": "days"}, {"measurement": "Tq (time to tumor volume quadrupling)", "setting": "[1]; GXA 3039 PDX, time to 400% of median RTV, nr = not reached until end of test, doses as Table 8", "result": 108.0, "unit": "days"}, {"measurement": "TGI [%] (d)", "setting": "[1]; GXA 3039 gastric cancer PDX, day 36, BI 853520 50 mg/kg/d PO days 1-35, docetaxel 10 mg/kg IV days 1, 8, 15, 22, 29, combination of both", "result": "113% and 113(36) %"}, {"measurement": "Survival rate", "setting": "[1]; female, BomTac:NMRI-Foxn1nu, mouse, in vivo", "result": "2/8"}, {"measurement": "Median BWL maximum", "setting": "[1]; mouse, in vivo", "result": 2.1, "unit": "%"}, {"measurement": "Median BWL maximum, day", "setting": "[1]; mouse, in vivo", "result": 2, "unit": "days"}]}, {"molecule": "CC(=O)O[C@H]1C(=O)[C@@]2(C)[C@H]([C@H](OC(=O)c3ccccc3)[C@]3(O)C[C@H](OC(=O)[C@H](O)[C@@H](NC(=O)c4ccccc4)c4ccccc4)C(C)=C1C3(C)C)[C@]1(OC(C)=O)CO[C@@H]1C[C@@H]2O", "note": "[Paclitaxel]", "values": [{"measurement": "Median tumor volume", "setting": "KYSE-270 cells; day 13, BI 853520 50 mg/kg qd by gavage, paclitaxel 10 mg/kg q7d i.v., combination of both", "result": 1033, "unit": "mm^3"}, {"measurement": "TGI", "setting": "KYSE-270 cells; day 13, BI 853520 50 mg/kg qd, paclitaxel 10 mg/kg q7d, combination of both", "result": 2, "unit": "%"}, {"measurement": "Antitumor effect (in words)", "setting": "KYSE-270 cells; [4]", "result": "no effect on tumor growth; also recorded: had no effect"}, {"measurement": "Change in median body weight", "setting": "KYSE-270 cells; [4]", "result": "−9.7", "unit": "%"}, {"measurement": "Tumor regression (animals with regression/animals in group)", "setting": "KYSE-270 cells; [4]", "result": "no tumor regression and 0/7"}, {"measurement": "Animal body weight decreased by", "setting": "KYSE-270 cells; paclitaxel 10 mg/kg q7d, value is a decrease", "result": 9.7, "unit": "%"}]}]}
